This note sets out measurements from the NIST ThermoML archive (doi:10.1021/je300517q).

Numbers after ± are expanded uncertainties.

For data set [1] the following is noted: Crystal; DTA.
A short description of data set [2]: Molar enthalpy of transition or fusion. The conditions noted are these: Crystal; DSC.

With `Nc1cccnn1` [3-pyridazinamine], the Normal melting temperature in data set [1] worked out at 169.47 ± 0.39 °C. Moreover, the “Molar enthalpy of transition or fusion” value in data set [2] was 0.629 ± 0.0406 kcal/mol.
